Reference: ChEMBL document CHEMBL1139487, “Discovery of corticotropin releasing factor 2 receptor selective sauvagine analogues for treatment of skeletal muscle atrophy” (J Med Chem, 2005)
Square brackets hold non-standard residues; d marks the D form. Peptide text beside a SMILES is read from it. 1Nal = N[C@@H](Cc1cccc2ccccc12)C(=O)O; pGlu = O=C1CC[C@@H](C(=O)O)N1

Tests used:
[1] = target: Corticotropin-releasing factor receptor 2 (Mus musculus, UniProt Q60748); assay: In vitro effective concentration for mouse corticotropin releasing factor 2 receptor
[2] = target: T1, Corticotropin-releasing factor receptor 1 (Mus musculus, UniProt P35347); assay: In vitro effective concentration for mouse corticotropin releasing factor 1 receptor
T1 sequence (P35347 whole entry): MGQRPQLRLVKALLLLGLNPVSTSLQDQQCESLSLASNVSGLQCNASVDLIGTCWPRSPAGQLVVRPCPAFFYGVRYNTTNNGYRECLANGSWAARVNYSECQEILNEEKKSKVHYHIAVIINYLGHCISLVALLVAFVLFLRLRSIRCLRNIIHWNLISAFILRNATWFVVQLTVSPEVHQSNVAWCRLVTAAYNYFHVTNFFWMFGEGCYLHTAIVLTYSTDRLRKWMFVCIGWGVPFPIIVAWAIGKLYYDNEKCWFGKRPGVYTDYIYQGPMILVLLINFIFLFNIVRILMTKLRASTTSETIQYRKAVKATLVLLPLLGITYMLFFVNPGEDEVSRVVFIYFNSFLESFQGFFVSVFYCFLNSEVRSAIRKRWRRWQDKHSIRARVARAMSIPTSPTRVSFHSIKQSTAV

[3] = target: T2, Corticotropin-releasing factor receptor 1 (Mus musculus) (UniProt P35347); assay: In vitro agonistic activity against mouse corticotropin releasing factor 1 receptor; type: functional
T2 sequence (whole entry): T1 sequence (P35347 whole entry)

[4] = target: Corticotropin-releasing factor receptor 2 (Mus musculus) (UniProt Q60748); assay: In vitro agonistic activity against mouse corticotropin releasing factor 2 receptor; type: functional
Corticotropin-releasing factor receptor 2 (Mus musculus), sequence (Q60748 whole entry): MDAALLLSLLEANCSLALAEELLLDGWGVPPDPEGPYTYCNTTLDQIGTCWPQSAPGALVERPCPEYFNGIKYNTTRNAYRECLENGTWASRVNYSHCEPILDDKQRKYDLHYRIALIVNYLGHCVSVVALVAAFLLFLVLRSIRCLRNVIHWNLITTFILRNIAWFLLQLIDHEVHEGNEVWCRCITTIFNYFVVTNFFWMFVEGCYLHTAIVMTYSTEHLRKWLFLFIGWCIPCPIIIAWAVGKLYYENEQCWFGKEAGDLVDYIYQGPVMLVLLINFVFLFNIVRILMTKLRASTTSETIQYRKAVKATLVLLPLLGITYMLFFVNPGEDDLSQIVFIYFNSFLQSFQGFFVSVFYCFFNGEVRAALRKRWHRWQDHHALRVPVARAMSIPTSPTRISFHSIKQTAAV

Corticotropin-releasing factor receptor 2, sequence (Q60748 whole entry): as above

`CC[C@H](C)[C@H](NC(=O)[C@@H](NC(=O)[C@H](CC(=O)O)NC(=O)[C@H](CC(C)C)NC(=O)[C@H](CC(C)C)NC(=O)[C@H](CC(C)C)NC(=O)[C@H](CCCNC(=N)N)NC(=O)[C@H](CC(N)=O)NC(=O)[C@H](CC(N)=O)NC(=O)[C@H](C)NC(=O)[C@H](C)NC(=O)[C@H](CCC(N)=O)NC(=O)[C@H](CCC(N)=O)NC(=O)[C@H](CCCCN)NC(=O)[C@H](CCC(=O)O)NC(=O)[C@H](CCCCN)NC(=O)[C@H](CCC(=O)O)NC(=O)[C@H](CCC(N)=O)NC(=O)[C@H](CCCCN)NC(=O)[C@H](CCC(=O)O)NC(=O)[C@@H](NC(=O)[C@H](CCC(=O)O)NC(=O)[C@@H](NC(=O)[C@H](CCSC)NC(=O)[C@H](CCCCN)NC(=O)[C@H](CCCNC(=N)N)NC(=O)[C@H](CC(C)C)NC(=O)[C@H](CC(C)C)NC(=O)[C@H](Cc1cccc2ccccc12)NC(=O)[C@H](CCC(N)=O)NC(=O)[C@@H]1CCCN1C(=O)[C@H](CC(C)C)NC(=O)[C@H](CC(=O)O)NC(=O)[C@@H](NC(=O)[C@H](CO)NC(=O)[C@@H](NC(=O)[C@@H]1CCCN1C(=O)[C@@H]1CCCN1C(=O)CNC(=O)[C@@H]1CCC(=O)N1)[C@@H](C)CC)[C@@H](C)CC)[C@@H](C)CC)[C@@H](C)CC)[C@@H](C)O)C(=O)O` ([pGlu]GPPISIDLPQ[1Nal]LLRKMIEIEKQEKEKQQAANNRLLLDTI-OH) was tested, and the EC50 [1] was 14.1 nM and the EC50 [2] was 367 nM.

In the case of `CC[C@H](C)[C@H](NC(=O)[C@@H](NC(=O)[C@H](CC(=O)O)NC(=O)[C@H](CC(C)C)NC(=O)[C@H](CC(C)C)NC(=O)[C@H](CC(C)C)NC(=O)[C@H](CCCNC(=N)N)NC(=O)[C@H](CC(N)=O)NC(=O)[C@H](CC(N)=O)NC(=O)[C@H](C)NC(=O)[C@H](C)NC(=O)[C@H](CCC(N)=O)NC(=O)[C@H](CCC(N)=O)NC(=O)[C@H](CCCCN)NC(=O)[C@H](CCC(=O)O)NC(=O)[C@H](CCCCN)NC(=O)[C@H](CCC(=O)O)NC(=O)[C@H](CCC(N)=O)NC(=O)[C@H](CCCCN)NC(=O)[C@H](CCC(=O)O)NC(=O)[C@@H](NC(=O)[C@H](CCC(=O)O)NC(=O)[C@@H](NC(=O)[C@H](CCSC)NC(=O)[C@H](CCCCN)NC(=O)[C@H](CCCNC(=N)N)NC(=O)[C@H](CC(C)C)NC(=O)[C@H](CC(C)C)NC(=O)[C@H](CCC(N)=O)NC(=O)[C@H](CCC(N)=O)NC(=O)[C@@H]1CCCN1C(=O)[C@H](CC(C)C)NC(=O)[C@H](CC(=O)O)NC(=O)[C@@H](NC(=O)[C@H](CO)NC(=O)[C@@H](NC(=O)[C@@H]1CCCN1C(=O)[C@@H]1CCCN1C(=O)CNC(=O)[C@@H]1CCC(=O)N1)[C@@H](C)CC)[C@@H](C)CC)[C@@H](C)CC)[C@@H](C)CC)[C@@H](C)O)C(=O)O`, the EC50 [1] is reported as 29.9 nM and the EC50 [2] is reported as > 1000 nM.

With `CC[C@H](C)[C@H](NC(=O)[C@@H](NC(=O)[C@H](CC(=O)O)NC(=O)[C@H](CC(C)C)NC(=O)[C@H](CC(C)C)NC(=O)[C@H](CC(C)C)NC(=O)[C@H](CCCNC(=N)N)NC(=O)[C@H](CC(N)=O)NC(=O)[C@H](CC(N)=O)NC(=O)[C@H](C)NC(=O)[C@H](C)NC(=O)[C@H](CCC(N)=O)NC(=O)[C@H](CCC(N)=O)NC(=O)[C@H](CCCCN)NC(=O)[C@H](CCC(=O)O)NC(=O)[C@H](CCCCN)NC(=O)[C@H](CCC(=O)O)NC(=O)[C@H](CCC(N)=O)NC(=O)[C@H](CCCCN)NC(=O)[C@H](CCC(=O)O)NC(=O)[C@@H](NC(=O)[C@H](CCC(=O)O)NC(=O)[C@@H](NC(=O)[C@H](CCSC)NC(=O)[C@H](CCCCN)NC(=O)[C@H](CCCNC(=N)N)NC(=O)[C@H](CC(C)C)NC(=O)[C@H](CC(C)C)NC(=O)[C@H](CCC(N)=O)NC(=O)[C@H](Cc1ccccc1)NC(=O)[C@@H]1CCCN1C(=O)[C@H](CC(C)C)NC(=O)[C@H](CC(=O)O)NC(=O)[C@@H](NC(=O)[C@H](CO)NC(=O)[C@@H](NC(=O)[C@@H]1CCCN1C(=O)[C@@H]1CCCN1C(=O)CNC(=O)[C@@H]1CCC(=O)N1)[C@@H](C)CC)[C@@H](C)CC)[C@@H](C)CC)[C@@H](C)CC)[C@@H](C)O)C(=O)O` the EC50 [1] was 1.8 nM and the EC50 [2] was 112 nM.

`CC[C@H](C)[C@H](NC(=O)[C@@H](NC(=O)[C@H](CC(=O)O)NC(=O)[C@H](CC(C)C)NC(=O)[C@H](CC(C)C)NC(=O)[C@H](CC(C)C)NC(=O)[C@H](CCCN=C(N)N)NC(=O)[C@H](CC(N)=O)NC(=O)[C@H](CC(N)=O)NC(=O)[C@H](C)NC(=O)[C@H](C)NC(=O)[C@H](CCC(N)=O)NC(=O)[C@H](CCC(N)=O)NC(=O)[C@H](CCCCN)NC(=O)[C@H](CCC(=O)O)NC(=O)[C@H](CCCCN)NC(=O)[C@H](CCC(=O)O)NC(=O)[C@H](CCC(N)=O)NC(=O)[C@H](CCCCN)NC(=O)[C@H](CCC(=O)O)NC(=O)[C@@H](NC(=O)[C@H](CCC(=O)O)NC(=O)[C@@H](NC(=O)[C@H](CCSC)NC(=O)[C@H](CCCCN)NC(=O)[C@H](CCCN=C(N)N)NC(=O)[C@H](CC(C)C)NC(=O)[C@H](CC(C)C)NC(=O)[C@H](CCC(=O)O)NC(=O)[C@H](CC(C)C)NC(=O)[C@H](CO)NC(=O)[C@H](CC(C)C)NC(=O)[C@H](CC(=O)O)NC(=O)[C@@H](NC(=O)[C@H](CO)NC(=O)[C@@H](NC(=O)[C@@H]1CCCN1C(=O)[C@@H]1CCCN1C(=O)CNC(=O)[C@@H]1CCC(=O)N1)[C@@H](C)CC)[C@@H](C)CC)[C@@H](C)CC)[C@@H](C)CC)[C@@H](C)O)C(=O)O` [SAUVAGINE] showed an Emax [3] of 99% and an Emax [4] of 95%.

`CC[C@H](C)[C@H](NC(=O)[C@@H](NC(=O)[C@H](CC(=O)O)NC(=O)[C@H](CC(C)C)NC(=O)[C@H](CC(C)C)NC(=O)[C@H](CC(C)C)NC(=O)[C@H](CCCNC(=N)N)NC(=O)[C@H](CC(N)=O)NC(=O)[C@H](CC(N)=O)NC(=O)[C@H](C)NC(=O)[C@H](C)NC(=O)[C@H](CCC(N)=O)NC(=O)[C@H](CCC(N)=O)NC(=O)[C@H](CCCCN)NC(=O)[C@H](CCC(=O)O)NC(=O)[C@H](CCCCN)NC(=O)[C@H](CCC(=O)O)NC(=O)[C@H](CCC(N)=O)NC(=O)[C@H](CCCCN)NC(=O)[C@H](CCC(=O)O)NC(=O)[C@@H](NC(=O)[C@H](CCC(=O)O)NC(=O)[C@@H](NC(=O)[C@H](CCSC)NC(=O)[C@H](CCCCN)NC(=O)[C@H](CCCNC(=N)N)NC(=O)[C@H](CC(C)C)NC(=O)[C@H](CC(C)C)NC(=O)[C@H](CCC(N)=O)NC(=O)[C@H](Cc1ccc(O)cc1)NC(=O)[C@@H]1CCCN1C(=O)[C@H](CC(C)C)NC(=O)[C@H](CC(=O)O)NC(=O)[C@@H](NC(=O)[C@H](CO)NC(=O)[C@@H](NC(=O)[C@@H]1CCCN1C(=O)[C@@H]1CCCN1C(=O)CNC(=O)[C@@H]1CCC(=O)N1)[C@@H](C)CC)[C@@H](C)CC)[C@@H](C)CC)[C@@H](C)CC)[C@@H](C)O)C(=O)O` was tested, and the EC50 [1] was 8.6 nM and the EC50 [2] was 404 nM.

Work on `CC[C@H](C)[C@H](NC(=O)[C@@H](NC(=O)[C@H](CCC(=O)O)NC(=O)[C@H](CCSC)NC(=O)[C@H](CC(C)C)NC(=O)[C@H](CCCCN)NC(=O)[C@H](CCCN=C(N)N)NC(=O)[C@H](CC(N)=O)NC(=O)[C@H](CO)NC(=O)[C@H](Cc1c[nH]cn1)NC(=O)[C@H](C)NC(=O)[C@H](CCC(N)=O)NC(=O)[C@H](CCC(N)=O)NC(=O)[C@H](C)NC(=O)[C@H](CC(C)C)NC(=O)[C@H](CCC(N)=O)NC(=O)[C@H](CCC(=O)O)NC(=O)[C@H](C)NC(=O)[C@H](CCCN=C(N)N)NC(=O)[C@H](C)NC(=O)[C@H](CCSC)NC(=O)[C@H](CCC(=O)O)NC(=O)[C@H](CC(C)C)NC(=O)[C@@H](NC(=O)[C@H](CCC(=O)O)NC(=O)[C@H](CCCN=C(N)N)NC(=O)[C@H](CC(C)C)NC(=O)[C@H](CC(C)C)NC(=O)[C@H](Cc1c[nH]cn1)NC(=O)[C@H](Cc1ccccc1)NC(=O)[C@@H](NC(=O)[C@H](CC(C)C)NC(=O)[C@H](CC(=O)O)NC(=O)[C@H](CC(C)C)NC(=O)[C@H](CO)NC(=O)[C@@H](NC(=O)[C@@H]1CCCN1C(=O)[C@@H]1CCCN1C(=O)[C@H](CCC(=O)O)NC(=O)[C@H](CCC(=O)O)NC(=O)[C@@H](N)CO)[C@@H](C)CC)[C@@H](C)O)C(C)C)[C@@H](C)CC)C(=O)O` yielded an Emax [3] of 87% and an Emax [4] of 82%.

`CC[C@H](C)[C@H](NC(=O)[C@@H](NC(=O)[C@H](CCC(=O)O)NC(=O)[C@H](CCSC)NC(=O)[C@H](CC(C)C)NC(=O)[C@H](CCCCN)NC(=O)[C@H](CCCNC(=N)N)NC(=O)[C@H](CC(N)=O)NC(=O)[C@H](CO)NC(=O)[C@H](Cc1c[nH]cn1)NC(=O)[C@H](C)NC(=O)[C@H](CCC(N)=O)NC(=O)[C@H](CCC(N)=O)NC(=O)[C@H](C)NC(=O)[C@H](CC(C)C)NC(=O)[C@H](CCC(N)=O)NC(=O)[C@H](CCC(=O)O)NC(=O)[C@H](C)NC(=O)[C@H](CCCNC(=N)N)NC(=O)[C@H](C)NC(=O)[C@H](CCSC)NC(=O)[C@H](CCC(=O)O)NC(=O)[C@H](CC(C)C)NC(=O)[C@@H](NC(=O)[C@H](CCC(=O)O)NC(=O)[C@H](CCCNC(=N)N)NC(=O)[C@H](CC(C)C)NC(=O)[C@H](CC(C)C)NC(=O)[C@H](Cc1c[nH]cn1)NC(=O)[C@H](Cc1ccccc1)NC(=O)[C@@H](NC(=O)[C@H](CC(C)C)NC(=O)[C@H](CC(=O)O)NC(=O)[C@H](CC(C)C)NC(=O)[C@H](CO)NC(=O)[C@@H](NC(=O)[C@@H]1CCCN1C(=O)[C@@H]1CCCN1C(=O)[C@H](CCC(=O)O)NC(=O)[C@H](CCC(=O)O)NC(=O)[C@@H](N)CO)[C@@H](C)CC)[C@@H](C)O)C(C)C)[C@@H](C)CC)C(N)=O` [HUMAN CORTICOTROPIN RELEASING FACTOR] gave an EC50 [2] of 20 nM.

With “H-IVLSLDVPIGLLQILLEQARARAAREQATTNARILARV-OH” the Emax [3] was 8% and the Emax [4] was 96%.
